Test results: patent US4889859A, “Pyrido[2,3-d]pyrimidine derivatives” (priority 1988, dated 1989)
Values after ≈ are worked out from the molar mass of the structure shown.

What was measured:
mouse L1210 leukemia = settings: literature; cited from earlier work
[1] = literature; cited from earlier work
dihydrofolate reductase = settings: literature; cited from earlier work
[2] = test system: human leukemia cell line (CCRF-CEM); assay: IC50 determined in whole cell human leukemia cell line (CCRF-CEM); format: cell-based
Description: Representative IC50 values determined in whole cell human leukemia cell line (CCRF-CEM) are as follows: […]

[3] = test system: C3H mammary adenocarcinoma; assay: C3H mammary adenocarcinoma implanted in mice, intraperitoneal treatment for five days; format: in vivo; settings: intraperitoneally for five days
Protocol: At a dosage of 100 mg/kg, 80% inhibition was observed.

6C3HED lymphosarcoma = 6C3HED lymphosarcoma in mice; format: in vivo

**Q.** For `Nc1nc(N)c2cc(CCc3ccc(C(=O)N[C@@H](CCC(=O)O)C(=O)O)cc3)ccc2n1` [5,8,10-trideazaaminopterin], which “activity against mouse L1210 leukemia” value (mouse L1210 leukemia) is on record?
**A.** exhibits activity

**Q.** Which “activity against mouse L1210 leukemia” value (mouse L1210 leukemia) does the source give for `Nc1nc2ccc(CCc3ccc(C(=O)N[C@@H](CCC(=O)O)C(=O)O)cc3)cc2c(=O)[nH]1` [5,8,10-trideazafolic acid] here?
**A.** only marginal activity

**Q.** With `Nc1nc2ncc(CNc3ccc(C(=O)N[C@@H](CCC(=O)O)C(=O)O)cc3)cc2c(=O)[nH]1` [5-Deazafolic acid] as the compound, how does the cytotoxicity [1] read?
**A.** only weakly cytotoxic

**Q.** For `Nc1nc(N)c2nc(CCc3ccc(C(=O)N[C@@H](CCC(=O)O)C(=O)O)cc3)ccc2n1` [8,10-Dideazaaminopterin], which antimetabolic activity [1] is on record?
**A.** active

**Q.** With `Nc1nc2ccc(CCc3ccc(C(=O)N[C@@H](CCC(=O)O)C(=O)O)cc3)nc2c(=O)[nH]1` [8,10-Dideazafolic acid] as the compound, how does the dihydrofolate reductase inhibition (dihydrofolate reductase) read?
**A.** only marginally effective

**Q.** With `Nc1nc(N)c2nc(CCc3ccc(C(=O)N[C@@H](CCC(=O)O)C(=O)O)cc3)cnc2n1` [10-Deazaaminopterin] as the compound, how does the antimetabolic activity [1] read?
**A.** highly active

**Q.** Which antimetabolic activity [1] does the source give for `Nc1nc2ncc(CCc3ccc(C(=O)N[C@@H](CCC(=O)O)C(=O)O)cc3)nc2c(=O)[nH]1` [10-deazafolic acid] here?
**A.** no significant activity

**Q.** Which IC50 [2] does the source give for `Nc1nc(O)c2c(n1)NCC(CCc1cccc(C(=O)N[C@@H](CCC(=O)O)C(=O)O)c1)C2` (stereo partly drawn) [A, N-(3-[2-(2amino-4-hydroxy-5,6,7,8-tetrahydropyrido[2,3-d]pyrimidin-6-yl)ethyl]benzoyl)-L-glutamic acid] here?
**A.** 0.015 µg/mL (≈ 0.0338 µM)

**Q.** With `CN(Cc1cnc2nc(N)nc(N)c2n1)c1ccc(C(=O)N[C@@H](CCC(=O)O)C(=O)O)cc1` [Amethopterin, 10-methylaminopterin] as the compound, how does the dihydrofolate reductase inhibition (dihydrofolate reductase) read?
**A.** inhibits dihydrofolate reductase

**Q.** For `Nc1nc(O)c2c(n1)NCC(CCc1ccc(C(=O)N[C@@H](CCC(=O)O)C(=O)O)c(F)c1)C2` (stereo partly drawn) [Compound H, N-(2-fluoro-4-[2-(2-amino-4-hydroxy-5,6,7,8-tetrahydropyrido[2,3-d]pyrimidin-6-yl)ethyl]benzoyl)-L-glutamic acid], which toxicity ([3]; 30 mg/kg and 100 mg/kg) is on record?
**A.** No toxicity was observed

**Q.** What about the inhibition ([3]; 30 mg/kg) of the same compound?
**A.** 72%

**Q.** And the inhibition ([3]; 100 mg/kg)?
**A.** 80%

**Q.** What about the IC50 [2] of the same compound?
**A.** 0.004 µg/mL (≈ 0.00867 µM)

**Q.** And the “% INHIBITION” value (6C3HED lymphosarcoma; dose 25 (MK/KG))?
**A.** 94%

**Q.** And the TOXIC/TOTAL (6C3HED lymphosarcoma; dose 25 (MK/KG))?
**A.** 0/9

**Q.** And the “% INHIBITION” value (6C3HED lymphosarcoma; dose 50 (MK/KG))?
**A.** 95%

**Q.** What about the TOXIC/TOTAL (6C3HED lymphosarcoma; dose 50 (MK/KG)) of the same compound?
**A.** 0/10

**Q.** What about the “% INHIBITION” value (6C3HED lymphosarcoma; dose 100 (MK/KG)) of the same compound?
**A.** 100%

**Q.** And the TOXIC/TOTAL (6C3HED lymphosarcoma; dose 100 (MK/KG))?
**A.** 0/10

**Q.** What about the “% INHIBITION” value (6C3HED lymphosarcoma; dose 200 (MK/KG)) of the same compound?
**A.** 100%

**Q.** And the TOXIC/TOTAL (6C3HED lymphosarcoma; dose 200 (MK/KG))?
**A.** 0/10

**Q.** Which IC50 [2] does the source give for `Nc1nc(O)c2c(n1)NCC(CCc1ccc(F)c(C(=O)N[C@@H](CCC(=O)O)C(=O)O)c1)C2` (stereo partly drawn) [D, N-(2-fluoro-5-[2-(2-amino-4-hydroxy-5,6,7,8-tetrahydropyrido[2,3-d]pyrimidin-6-yl)ethyl]benzoyl)-L-glutamic acid] here?
**A.** 0.1 µg/mL (≈ 0.217 µM)

**Q.** With `Nc1nc(O)c2c(n1)NCC(CCc1ccc(C(=O)N[C@@H](CCC(=O)O)C(=O)O)c(Cl)c1)C2` (stereo partly drawn) [F, N-(2-chloro-4-[2-(2-amino-4-hydroxy-5,6,7,8-tetrahydropyrido[2,3-d]pyrimidin-6-yl)ethyl]benzoyl)-L-glutamic acid] as the compound, how does the IC50 [2] read?
**A.** 0.027 µg/mL (≈ 0.0565 µM)
